Usually melting point stands for the temperature of the solid-liquid transition.

The source of these data is US11109593B2, “Isoxazolin-5-one derivative and herbicide containing same as active ingredient” (HOKKO CHEMICAL INDUSTRY CO., LTD., priority 2017, dated 2021).

Data set [1] deals with Amaranthus viridis. The data set can be described thus: Test Example 4: herbicidal effect test by treatment of leave and stem in dry field farming (seven days after seeding). It counts as in vivo. Conditions: Amaranthus viridis, 336 h; 120 g/10a active ingredient; emulsion sprayed seven days after seeding; evaluated 14 days after treatment; read-out: herbicidal effect (herbicidal rate), Amaranthus viridis. Put shortly: (§1)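 Twenty seeds per species were mixed into the top 1 cm of alluvial soil in 36 cm^2 pots; emulsions were sprayed seven days after seeding at 100 L per 10 ares (120 g active ingredient per 10 ares). Herbicidal rate (%) = {1 − treated/untreated mean dry weight} × 100, 14 days after treatment, duplicate.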

In data set [2] the test system is Echinochloa crus-galli. The description is as above. It counts as in vivo. Conditions: Echinochloa crus-galli, 336 h; 120 g/10a active ingredient; emulsion sprayed seven days after seeding; evaluated 14 days after treatment; read-out: herbicidal effect (herbicidal rate), Echinochloa crus-galli. Put shortly: as §1
Data set [3] deals with southern crabgrass. Described as above. It counts as in vivo. The following applies: Digitaria ciliaris, 336 h; 120 g/10a active ingredient; emulsion sprayed seven days after seeding; evaluated 14 days after treatment; read-out: herbicidal effect (herbicidal rate), southern crabgrass. Put shortly: as §1
The test system of data set [4] is Chenopodium album. The data set is described as above. It counts as in vivo. Conditions: Chenopodium album, 336 h; 120 g/10a active ingredient; emulsion sprayed seven days after seeding; evaluated 14 days after treatment; read-out: herbicidal effect (herbicidal rate), Chenopodium album. The method, boiled down:
as §1

In data set [5] the test system is Amaranthus viridis. Kind of data set: Test Example 3: herbicidal effect test by treatment of dry field farming soil (one day after seeding). The following applies: Amaranthus viridis, 336 h, 120 g/10a active ingredient, evaluated 14 days after treatment, read-out: herbicidal rate, Amaranthus viridis. It counts as in vivo. Put shortly:
(§2)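 Herbicidal rate (%) equals 1 minus treated/untreated mean plant dry weight, times 100, taken 14 days after treatment in duplicate pots. Emulsion diluted in water was applied at 100 L per 10 ares (120 g a.i. per 10 ares) one day after sowing 20 seeds per species into the top 1 cm of alluvial soil.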

Data set [6] concerns Echinochloa crus-galli. The data set is described as above. It counts as in vivo. The following applies: Echinochloa crus-galli, 336 h, 120 g/10a active ingredient, evaluated 14 days after treatment, read-out: herbicidal rate, Echinochloa crus-galli. The method, boiled down:
as §2

In data set [7] the test system is southern crabgrass. Described as above. It counts as in vivo. The following applies: Digitaria ciliaris, 336 h, 120 g/10a active ingredient, evaluated 14 days after treatment, read-out: herbicidal rate, southern crabgrass. Put shortly: as §2
Data set [8] relates to Chenopodium album. The data set is described as above. It counts as in vivo. Conditions: Chenopodium album, 336 h, 120 g/10a active ingredient, evaluated 14 days after treatment, read-out: herbicidal rate, Chenopodium album. Put shortly:
as §2

The subject of data set [9] is Echinochloa crus-galli. Kind of data set: Test Example 1: herbicidal effect test by treatment of rice paddy soil (immediately after seeding). It counts as in vivo. Conditions: in Echinochloa crus-galli, 336 h, 120 g/10a active ingredient, dry weight vs untreated area, 14 days after treatment, read-out: Herbicidal rate (%) Echinochloa crus-galli. The method, boiled down:
(§3)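 Pre-emergence paddy water application, 120 g a.i./10 ares, applied immediately post-seeding into ~3 cm flood; glasshouse; duplicate pots; dry weight at 14 d → % inhibition = (1 − treated/untreated) × 100.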

Data set [10] relates to broad leaf weeds (Lindernia pyxidaria and Monochoria vaginalis). The data set is described as above. It counts as in vivo. Conditions: 336 h, 120 g/10a active ingredient, dry weight vs untreated area, 14 days after treatment. The method, boiled down:
as §3

The test system of data set [11] is Scirpus juncoides. The data set is described as above. It counts as in vivo. Conditions: in Schoenoplectiella juncoides, 336 h, 120 g/10a active ingredient, dry weight vs untreated area, 14 days after treatment, read-out: Herbicidal rate (%) Scirpus juncoides. Put shortly:
as §3

The test system of data set [12] is Echinochloa crus-galli. Kind of data set: Test Example 2: herbicidal effect test by treatment during growing period in paddy rice cultivation (seven days after seeding). The following applies: Echinochloa crus-galli, 336 h, 120 g/10a active ingredient, assessed 14 days after treatment, dry weight vs untreated area, read-out: herbicidal rate (%) Echinochloa crus-galli. It counts as in vivo. Put shortly: (§4)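 Herbicidal rate (%) = {1 − treated/untreated mean plant dry weight} × 100, assessed in duplicate 14 days post-treatment. Emulsion formulations were diluted in water and dropped onto flooded (about 3 cm) paddy pots 7 days after seeding, giving 120 g a.i. per 10 ares. Plants were grown in a glass greenhouse.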

Data set [13] has as its system broad leaf weeds (Lindernia pyxidaria and Monochoria vaginalis). The data set is described as above. It counts as in vivo. Conditions: 336 h, 120 g/10a active ingredient, assessed 14 days after treatment, dry weight vs untreated area. Put shortly:
as §4

Data set [14] concerns Scirpus juncoides. Described as above. It counts as in vivo. Conditions: Schoenoplectiella juncoides, 336 h, 120 g/10a active ingredient, assessed 14 days after treatment, dry weight vs untreated area, read-out: herbicidal rate (%) Scirpus juncoides. The method, boiled down:
as §4

As to `COCC(C)n1oc(=O)c(Cc2ccccc2N(S(=O)(=O)C(F)(F)F)S(=O)(=O)C(F)(F)F)c1C` (centres unmarked) [Compound 1-997, 1,1,1-trifluoro-N-[2-[[2-(2-methoxy-1-methyl-ethyl)-3-methyl-5-oxo-isoxazol-4-yl]methyl]phenyl]-N-(trifluoromethylsulfonyl)methanesulfonamide], the melting point is 116 to 118 °C. Further, the pest or weed control at 1200 g/ha in data set [1] was 40%. For the same molecule, in data set [2], the pest or weed control at 1200 g/ha was 70%. In addition, in data set [3], the pest or weed control at 1200 g/ha amounted to 40%. Further, the pest or weed control at 1200 g/ha in data set [4] is 0%. Also, the pest or weed control at 1200 g/ha in data set [5] came to 50%. The pest or weed control at 1200 g/ha in data set [6] stood at 90%. Besides, the pest or weed control at 1200 g/ha in data set [7] is 90%. Further, the pest or weed control at 1200 g/ha in data set [8] was determined as 50%. In addition, the pest or weed control at 1200 g/ha in data set [9] amounted to 90%. For the same molecule, the pest or weed control at 1200 g/ha in data set [10] (Monochoria vaginalis, read-out: Herbicidal rate (%) Monochoria vaginalis) was determined as 80%. Moreover, the pest or weed control at 1200 g/ha in data set [10] (in Lindernia, Lindernia pyxidaria, read-out: Herbicidal rate (%) Lindernia pyxidaria) was determined as 90%. In addition, the pest or weed control at 1200 g/ha in data set [11] came to 90%. Moreover, the pest or weed control at 1200 g/ha in data set [12] came to 90%. Moreover, the pest or weed control at 1200 g/ha in data set [13] (Lindernia pyxidaria, read-out: herbicidal rate (%) Lindernia pyxidaria) was found to be 70%. Besides, the pest or weed control at 1200 g/ha in data set [13] (Monochoria vaginalis, read-out: herbicidal rate (%) Monochoria vaginalis) worked out at 90%. Further, in data set [14], the pest or weed control at 1200 g/ha turned out to be 90%.
